Source: patent publication US6524820B1, “Lectins and coding sequences” (University of Georgia Research Foundation, Inc., priority 1997, dated 2003)

Tests used:
recombinant XL35 [1] = test: Inhibition of XL35 erythrocyte agglutination activity; assay type: cell-based, Xenopus laevis; settings: 2 M urea
Experimental: The assay was performed essentially as described using trypsinized, glutaraldehyde-fixed rabbit erythrocytes [Barondes and Roberson (1987) Methods Enzymol. 138, 516-20] in TCS buffer (10 mM Tris, pH 7.6, 10 mM CaCl2, 150 mM NaCl). To compare the agglutination properties of both the purified and recombinant lectins, the two lectins were assayed under similar conditions. Because the eluted recombinant lectin was in 8 M urea, a solution of purified non-recombinant lectin was also brought to 8 M with a concentrated urea solution. The agglutination assay was performed using […] of either recombinant or native XL35 lectin in […] TCS and 8 M urea was added to wells of a 96-well microtiter plate. Next, […] of TCS alone or TCS containing 0.4 M EDTA or 1.0 M melibiose or 1.0 M sucrose was added to the wells and mixed with the lectin solution. To this solution, 50 ml of a 1:1 suspension of trypsinized, glutaraldehyde-fixed rabbit erythrocytes in TCS was added and the contents of the wells were mixed by trituration. The final concentration of urea in the wells was 2 M, while that of EDTA was 0.10 M and that of melibiose and sucrose were 0.25 M. Agglutination activity was scored after 1.5 hr. at room temperature using an inverted microscope on low power. After 1.5 hr in TCS plus 2 M urea, the purified oocyte lectin retained about 25-50% of the agglutination activity observed when it was assayed in TCS alone, but the relative abilities of various sugars to inhibit the agglutination reaction were similar in the presence or absence of urea. The recombinant lectin precipitated in the absence of urea; therefore, at least 2 M urea was used in the agglutination assay.

recombinant XL35 [2] = settings: in the presence of Ca++; literature (Clark 1987); cited from earlier work

| SMILES | inhibition of recombinant XL35 agglutination activity (recombinant XL35 [1]; inhibitor at 0.25 M) | inhibition of recombinant XL35 agglutination activity (recombinant XL35 [1]; inhibitor at 0.1 M) | inhibition of agglutination of trypsinized rabbit erythrocytes by frog oocyte lectins (recombinant XL35 [2]) |
| --- | --- | --- | --- |
| OC[C@H]1O[C@@](CO)(O[C@H]2O[C@H](CO)[C@@H](O)[C@H](O)[C@H]2O)[C@@H](O)[C@@H]1O [sucrose] | not | – | – |
| O=C(O)CN(CCN(CC(=O)O)CC(=O)O)CC(=O)O [EDTA] | – | completely inhibited | – |
| OC[C@H]1O[C@H](OCC2O[C@@H](O)[C@H](O)[C@@H](O)[C@@H]2O)[C@H](O)[C@@H](O)[C@H]1O (stereo partly shown) [melibiose] | completely inhibited | – | strongly inhibited |
